Results: US4652568A, “Theophylline-7-acetic acid ester of d,l-trans-sobrerol having mucosecretolytic-fluidizing and antibronchospastic activity, a process for its preparation and pharmaceutical compositions thereof” (priority 1984, dated 1987)

Key:
[1] = Pharmacocinetics: plasma levels (HPLC) and presence in tracheo-bronchial excretion and pulmonary tissue; format: in vivo, Wistar rats; conditions: rat, 300 mg/kg oral
Experimental: Two groups of Wistar rats (165.div.250 g) are utilized. Before treatment, the animals were fasting for about 15 hours and were allowed to drink a 10% glucose solution ad libitum.
To the first group, the compound of formula (I) of this invention, orally (transoesophageal intubation) at the dose of 300 mg/kg is administered (a single administration) and at 0.5 h; 1 h; 1.5 h; 2 h; 3 h; 4 h; and 6 h from administration 5 rats/time are sacrificed. The blood, as collected into test tubes containing sodium heparin is centrifuged, and the plasma so obtained is utilized for quantitative analysis of the product, by means of high pressure liquid chromatography (HPLC) with an U.V. detector. To the second group, the compound of formula (I) of this invention at the dose of 300 mg/kg orally is administered (a single administration), and at 1 h and 2 h from administration, 5 rats/time are sacrificed (by bleeding). To each rat, trachea, bronchia and lungs are withdrawn. From trachea and bronchia, by means of two washings with a 0.5 ml syringe containing physiological solution, introduced into the trachea, the tracheo-bronchialexcretion is recovered, which is utilized to evaluate quantitatively the presence of the compound of formula (I) of the present invention. The pulmonary tissue, to which a KCl solution has been added, is homogenized by an ultra Turrax apparatus and utilized for the quantitative testing of the presence of the compound of formula (I) of this invention. […] In relation to the activity shown on by the compound of the invention as a mucosecretolytic-fluidizing-anti-bronchospastic agent, the present invention further provides pharmaceutical compositions containing the compound of formula (I) of this invention in dosage units.

[2] = tested on: mucoproduction (bronchial secretion); assay: Bronchosecretagogue activity: mucoproduction in the rabbit according to Scuri; format: in vivo; conditions: for Bronchosecretagogue activity: rabbit, oral, percent increase of mucoproduction II vs I period, relative to d,l-trans-sobrerol, taken equal to 100
Experimental: Method of mucoproduction in the rabbit according to Scuri R. et al, Boll. Chim. Farm.
Male brown rabbits weighing 2.8-3.5 kg are used. To said animals, by a surgical operation under anaesthesia, a T shaped tracheal cannula is applied, as described in the above mentioned bibliographic reference.
To the cannula, a container (a polypropylene 2 ml test tube) is applied for periodical collection of the bronchial secretion.
The study of mucoproduction, started at the fourth day after the operation, is divided into two 4 hour periods for collecting and measuring the mucus, and precisely from 8:30 to 12:30 (I) and from 12:30 to 16:30 (II).
The activity of each drug is tested by administering the same by oesophageal way (os) at the begining of the II period and by evaluating the percent increase of mucoproduction (weight of the mucus as collected) over the II period as compared to the I period.

[3] = tested on: bronchospasm induced by hystamine; assay: Antibronchospastic activity in the guinea-pig, method of Konzett and Rossler; format: in vivo; conditions: drug i.v., inhibition of bronchospasm by hystamine (6 to 20 mg/kg i.v.), relative to theophylline, taken equal to 100
Experimental: Spotted female guinea-pigs, with a body weight of 300-500 g., are used.
As a spasmogenous agent, hystamine (6 to 20 mg/kg i.v.) is used. The activity is defined as percent inhibition of the bronchospasm induced by hystamine in the presence of the drug (i.v. administered), compared to the one of hystamine alone in the presence of the solvent.
The drugs are dissolved into 2% dimethylformamide in physiological solution (solvent).

[4] = tested on: bronchial mucus of bronchitic rabbits; assay: Fluidizing "in vivo" activity: viscosity of the bronchial mucus of bronchitic rabbits; set-up: species or system rabbit; conditions: for Fluidizing "in vivo" activity of bronchial mucus: bronchitic rabbits, oral, relative to d,l-trans-sobrerol taken equal to 100
Experimental: Method for studying viscosity of the bronchial mucus of a bronchitic rabbit.
Viscosity of the mucus as withdrawn is studied by using a Contraves RM16 microviscosimeter and it is recorded by a Rheomat 15T-FC apparatus.

[5] = Acute toxicity: LD50 in the mouse after a single oral administration; conditions: in vivo, mortality at 14th day, Litchfield and Wilcoxon
Experimental: Method for studying LD50 in the mouse after a single oral administration.
Groups of 10 Swiss albine, female, adult mice (20-22 g), fasting from the evening preceding the test, are treated orally with various doses (4 to 5) of the test drugs, dissolved/suspended in 1% hydroxycellulose (volume administered 20 ml/kg). Thereafter, the animals are fed again (Morini MIL fodder for mice).
The 50% lethal dose (LD50) is calculated by the method of Litchfield J. T. and Wilcoxon F. (J. Pharmacol. 96, 99-113, 1949) by utilizing the mortality data as obtained at the 14th day after the drug treatment.

| SMILES | presence at the level of tracheo-bronchial mucus ([1]; 1 h and 2 h) | presence in the pulmonary parenchyma ([1]; 1 h and 2 h) | absorption (course of the plasmatic levels) ([1]; single administration, plasma 0.5 to 6 h) | Bronchosecretagogue activity [2] | mucosecretolytic activity compared with d,l-trans-sobrerol, in words ([2]; summary statement) | Antibronchospastic activity [3] | Fluidizing "in vivo" activity of bronchial mucus [4] | fluidizing activity compared with d,l-trans-sobrerol, in words ([4]; summary statement) | LD50 at 336 h [5] |
| --- | --- | --- | --- | --- | --- | --- | --- | --- | --- |
| CC1=CC[C@H](C(C)(C)O)C[C@H]1OC(=O)Cn1cnc2c1c(=O)n(C)c(=O)n2C (relative stereo) [CO/1488, 5-hydroxy-α,α-4-trimethyl-3-cyclohexene-1-methanol-5-[2[7[1,2,3,6-tetrahydro-1,3-dimethyl-2,6-dioxopurinyl]]]acetate] | found also at the level of tracheo-bronchial mucus | in the pulmonary parenchyma | quick and good absorption | 128 | slight potency increase | 143 | 110 | slight potency increase | 1900 mg/kg |
| Cn1c(=O)c2[nH]cnc2n(C)c1=O [theophylline] | – | – | – | 0 | – | 100 | 0 | – | – |
| CC1=CC[C@H](C(C)(C)O)C[C@H]1O (relative stereo) [d,l-trans-sobrerol] | – | – | – | 100 | – | 0 | 100 | – | – |
